Our source for the IC50 values is patent US10865191B2, “Heterocyclic compounds useful as modulators of TNF alpha” (BRISTOL-MYERS SQUIBB COMPANY, priority 2015, dated 2020).

pIC50: −log10 of the molar value.

The target of the first assay is TNFα (Homo sapiens, UniProt P01375). Kind of assay: TNF induced HEK-Blue assay (NF-kB-driven secreted alkaline phosphatase reporter). The note with it: TNF induced HEK-Blue assay IC50 value, TNFα 0.5 ng/mL, HEK-Blue-CD40L cells, 18 h. In kind it is cell-based. In outline: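 HEK-Blue-CD40L cells (NF-kB-driven SEAP reporter), 20,000/well, added after 30 min pre-incubation of compound (0.004–25 μM final) with TNFα 0.5 ng/mL final at 37 °C; 18 h incubation. SEAP read with QUANTI-Blue at 620 nm; IC50 from 4-parameter logistic fit, normalized to unstimulated and stimulated DMSO controls.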
TNFα, sequence (P01375 77-233 limits assumed): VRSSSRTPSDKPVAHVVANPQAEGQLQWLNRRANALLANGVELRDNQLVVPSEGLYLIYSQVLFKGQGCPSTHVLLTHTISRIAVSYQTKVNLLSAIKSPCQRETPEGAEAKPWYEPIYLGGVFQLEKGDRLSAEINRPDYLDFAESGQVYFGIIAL
Molecule `Cc1ccc(C)c(Nc2c(Cl)c(C)nc3ccc(-c4cnc(C(C)(C)O)nc4)cc23)c1` [Example 1, 2-(5-(3-chloro-4-((2,5-dimethylphenyl)amino)-2-methylquinolin-6-yl)pyrimidin-2-yl)propan-2-ol] had a pIC50 of over 6.00.

The same assay, now with this note: TNFα 0.5 ng/mL, HEK-Blue-CD40L cells, 18 h; read-out: TNF induced HEK-Blue assay IC50 value.
Consider `CC(Nc1c(Cl)cnc2cc(F)c(-c3cnc(C(O)CN4CCC(C(=O)O)CC4)nc3)cc12)c1ccccc1F` (single isomer, unassigned) [Example 610, 1-(2-(5-(3-chloro-7-fluoro-4-((1-(2-fluorophenyl)ethyl)amino)quinolin-6-yl)pyrimidin-2-yl)-2-hydroxyethyl) piperidine-4-carboxylic acid], for which the pIC50 was over 6.00.
On the same count and under the same terms, the figure for `CC(Nc1c(Cl)cnc2cc(F)c(-c3cnc(N4C[C@H]5CC[C@@H](C4)C5C(=O)O)nc3)cc12)c1ccccc1F` (single isomer, unassigned) [Example 611] is over 6.00.
On to `CC(Nc1c(Cl)cnc2c(F)cc(-c3cnc(C(C)(C)O)nc3)cc12)c1cc(Br)ccc1F` (single isomer, unassigned) [Example 612, 2-(5-(4-((1-(5-bromo-2-fluorophenyl)ethyl)amino)-3-chloro-8-fluoroquinolin-6-yl)pyrimidin-2-yl)propan-2-ol], for which the pIC50 is over 6.00.
The same measure, in the same setting: the figure for `Cc1ccc(C)c(NCc2nc3ccc(-c4cnn(C)c4)cc3c(Nc3cc(C)ccc3C)c2Cl)c1` [Example 2, 3-chloro-N-(2,5-dimethylphenyl)-2-(((2,5-dimethylphenyl)amino)methyl)-6-(1-methyl-1H-pyrazol-4-yl)quinolin-4-amine] is 4.60 to 5.00.
Same read-out and setting: to `Cc1ccc(C)c(NCc2nc3ccc(-c4ccc(C#N)nc4)cc3c(Nc3cc(C)ccc3C)c2Cl)c1` [Example 3, 5-(3-chloro-4-((2,5-dimethylphenyl)amino)-2-(((2,5-dimethylphenyl)amino)methyl)quinolin-6-yl)picolinonitrile] belongs 5.00 to 6.00; to `CCOC(=O)c1nc2ccc(-c3ccc(C#N)nc3)cc2c(Nc2cc(C)ccc2C)c1Cl` [Example 5, ethyl 3-chloro-6-(6-cyanopyridin-3-yl)-4-((2,5-dimethylphenyl)amino)quinoline-2-carboxylate], 5.00 to 6.00.
On the same count and under the same terms, to `Cc1ccc(C)c(Nc2c(Cl)c(C)nc3ccc(-c4ccc(CN5CCN(C(=O)OC(C)(C)C)CC5)cc4)cc23)c1` [Example 6, tert-butyl 4-(4-(3-chloro-4-((2,5-dimethylphenyl)amino)-2-methylquinolin-6-yl)benzyl)piperazine-1-carboxylate] belongs 5.00 to 6.00; to `Cc1ccc(C)c(Nc2c(Cl)c(C)nc3ccc(-c4ccc(CN5CCNCC5)cc4)cc23)c1` [Example 7, 3-chloro-N-(2,5-dimethylphenyl)-2-methyl-6-(4-(piperazin-1-ylmethyl)phenyl)quinolin-4-amine], over 6.00; to `CNC(=O)c1ccc(-c2ccc3nc(C)c(Cl)c(Nc4cc(C)ccc4C)c3c2)cn1` [Example 8, 5-(3-chloro-4-((2,5-dimethylphenyl)amino)-2-methylquinolin-6-yl)-N-methylpicolinamide], over 6.00.
Turning to `Cc1ccc(C)c(Nc2c(Cl)c(C)nc3ccc(-c4ccc(C(=O)O)nc4)cc23)c1` [Example 9, 5-(3-chloro-4-((2,5-dimethylphenyl)amino)-2-methylquinolin-6-yl)picolinic acid], the pIC50 was 4.60 to 5.00.
Still for that read-out and setting: the figure for `CC(C)(O)c1ncc(-c2ccc3ncc(Cl)c(CNc4ccccc4)c3c2)cn1` [Example 11, 2-(5-(3-chloro-4-((phenylamino)methyl)quinolin-6-yl)pyrimidin-2-yl)propan-2-ol] is 4.60 to 5.00.
Regarding `O=C(O)CNCc1ccc(-c2ccc3ncc(Cl)c(N[C@@H](c4ccccc4F)C(F)F)c3c2)cc1` [Example 13, (S)-(4-(3-chloro-4-((2,2-difluoro-1-(2-fluorophenyl)ethyl)amino)quinolin-6-yl)benzyl)glycine], the pIC50 was 4.60 to 5.00.
Regarding `COC(=O)CN1CCN(c2ncc(-c3ccc4ncc(Cl)c(N[C@@H](c5ccccc5F)C(F)F)c4c3)cn2)CC1` [Example 14, (S)-methyl 2-(4-(5-(3-chloro-4-((2,2-difluoro-1-(2-fluorophenyl)ethyl)amino)quinolin-6-yl)pyrimidin-2-yl)piperazin-1-yl)acetate], the negative logarithm of the IC50 (pIC50) was over 6.00.
On the same count and under the same terms, the figure for `O=C(O)CN1CCN(c2ccc(-c3ccc4ncc(Cl)c(N[C@@H](c5ccccc5F)C(F)F)c4c3)cn2)CC1` [Example 15, (S)-2-(4-(5-(3-chloro-4-((2,2-difluoro-1-(2-fluorophenyl)ethyl)amino)quinolin-6-yl)pyridin-2-yl)piperazin-1-yl)acetic acid] is over 6.00.
Still for that read-out and setting: the figure for `O=C(O)CN1CCN(c2ccc(-c3ccc4ncc(Cl)c(N[C@@H](c5ccccc5F)C(F)F)c4c3)cc2)CC1` [Example 16, (S)-2-(4-(4-(3-chloro-4-((2,2-difluoro-1-(2-fluorophenyl)ethyl)amino)quinolin-6-yl)phenyl)piperazin-1-yl)acetic acid] is over 6.00; for `CNc1ncc(-c2ccc3ncc(Cl)c(N[C@H](C)c4ccccc4F)c3c2)cn1` [Example 17, (R)-3-chloro-N-(1-(2-fluorophenyl)ethyl)-6-(2-(methylamino)pyrimidin-5-yl)quinolin-4-amine] it is 4.60 to 5.00; for `CCNCc1ccc(-c2ccc3ncc(Cl)c(N[C@H](C)c4ccccc4F)c3c2)cc1` [Example 29, (R)-3-chloro-6-(4-((ethylamino)methyl)phenyl)-N-(1-(2-fluorophenyl)ethyl)quinolin-4-amine] it is 5.00 to 6.00.
For `C[C@@H](Nc1c(Cl)cnc2ccc(-c3ccc(CN4CCC4)cc3)cc12)c1ccccc1F` [Example 30, (R)-6-(4-(azetidin-1-ylmethyl)phenyl)-3-chloro-N-(1-(2-fluorophenyl)ethyl)quinolin-4-amine], the negative logarithm of the IC50 (pIC50) is 4.60 to 5.00.
The same measure, in the same setting: to `Cc1ccc(C)c(Nc2c(Cl)c(C(=O)O)nc3ccc(-c4ccc(C#N)nc4)cc23)c1` [Example 31, 3-chloro-6-(6-cyanopyridin-3-yl)-4-((2,5-dimethylphenyl)amino)quinoline-2-carboxylic acid] belongs 5.00 to 6.00; to `Cc1ccc(C)c(Nc2c(Cl)c(C(=O)Nc3cccnc3)nc3ccc(-c4ccc(C#N)nc4)cc23)c1` [Example 32, 3-chloro-6-(6-cyanopyridin-3-yl)-4-((2,5-dimethylphenyl)amino)-N-(pyridin-3-yl)quinoline-2-carboxamide], over 6.00; to `CNC(=O)c1nc2ccc(-c3ccc(C#N)nc3)cc2c(Nc2cc(C)ccc2C)c1Cl` [Example 33, 3-chloro-6-(6-cyanopyridin-3-yl)-4-((2,5-dimethylphenyl)amino)-N-methylquinoline-2-carboxamide], 5.00 to 6.00.
The same measure, in the same setting: the figure for `Cc1ccc(C)c(Nc2c(Cl)c(C(=O)N(C)C)nc3ccc(-c4ccc(C#N)nc4)cc23)c1` [Example 34, 3-chloro-6-(6-cyanopyridin-3-yl)-4-((2,5-dimethylphenyl)amino)-N,N-dimethylquinoline-2-carboxamide] is 5.00 to 6.00; for `Cc1ccc(C)c(Nc2c(Cl)c(C(=O)Nc3ccccc3)nc3ccc(-c4ccc(C#N)nc4)cc23)c1` [Example 35, 3-chloro-6-(6-cyanopyridin-3-yl)-4-((2,5-dimethylphenyl)amino)-N-phenylquinoline-2-carboxamide] it is 5.00 to 6.00; for `Cc1ccc(C)c(Nc2c(Cl)c(C(=O)Nc3ccncc3)nc3ccc(-c4ccc(C#N)nc4)cc23)c1` [Example 36, 3-chloro-6-(6-cyanopyridin-3-yl)-4-((2,5-dimethylphenyl)amino)-N-(pyridin-4-yl)quinoline-2-carboxamide] it is over 6.00.
With `Cc1ccc(C)c(Nc2c(Cl)c(C(=O)Nc3cccnc3)nc3ccc(-c4ccc(C(N)=O)nc4)cc23)c1` [Example 37, 6-(6-carbamoylpyridin-3-yl)-3-chloro-4-((2,5-dimethylphenyl)amino)-N-(pyridin-3-yl) quinoline-2-carboxamide], the pIC50 is 4.60 to 5.00.
For the molecule `Cc1ccc(C)c(Nc2c(Cl)c(CO)nc3ccc(-c4ccc(C#N)nc4)cc23)c1` [Example 40, 5-(3-chloro-4-((2,5-dimethylphenyl)amino)-2-(hydroxymethyl)quinolin-6-yl)picolinonitrile], the negative-log IC50 (pIC50) was 5.00 to 6.00.
Still for that read-out and setting: the figure for `Cc1ccc(C)c(Nc2c(Cl)c(COc3cccnc3)nc3ccc(-c4ccc(C#N)nc4)cc23)c1` [Example 41, 5-(3-chloro-4-((2,5-dimethylphenyl)amino)-2-((pyridin-3-yloxy)methyl)quinolin-6-yl)picolinonitrile] is 5.00 to 6.00.
The same measure, in the same setting: to `Cc1ccc(C)c(Nc2c(Cl)c(CN=[N+]=[N-])nc3ccc(-c4ccc(C#N)nc4)cc23)c1` [Example 42, 5-(2-(azidomethyl)-3-chloro-4-((2,5-dimethylphenyl)amino)quinolin-6-yl)picolinonitrile] belongs 5.00 to 6.00.
Same read-out and setting: to `Cc1ccc(C)c(Nc2c(Cl)c(CN)nc3ccc(-c4ccc(C#N)nc4)cc23)c1` [Example 43, 5-(2-(aminomethyl)-3-chloro-4-((2,5-dimethylphenyl)amino)quinolin-6-yl)picolinonitrile] belongs 5.00 to 6.00.
Turning to `Cc1ccc(C)c(Nc2c(Cl)c(CO)nc3ccc(-c4cnc(C(C)(C)O)nc4)cc23)c1` [Example 44, 2-(5-(3-chloro-4-((2,5-dimethylphenyl)amino)-2-(hydroxymethyl)quinolin-6-yl)pyrimidin-2-yl)propan-2-ol], the negative logarithm of the IC50 (pIC50) is over 6.00.
The same measure, in the same setting: the figure for `Cc1ccc(C)c(Nc2c(Cl)c(N)nc3ccc(-c4cnc(N5CCN(CC(=O)O)CC5)nc4)cc23)c1` [Example 45, 2-(4-(5-(2-amino-3-chloro-4-((2,5-dimethylphenyl)amino)quinolin-6-yl)pyrimidin-2-yl)piperazin-1-yl)acetic acid] is over 6.00.
